Data taken from patent publication EP1345943B1, “INHIBITORS OF PAPILLOMA VIRUS” (BOEHRINGER INGELHEIM (CANADA) LTD., priority 2000, dated 2002).

These compounds were tested against E1-E2-DNA complex (Human papillomavirus 11, UniProt P04015) (assay: E2-dependent E1 DNA binding assay (E1-E2 DNA assay)). Details: E1-E2 DNA assay of Example 11, HPV-11.
Protocol: This particular assay determines the ability of a test compound to inhibit the activity (IC50) of HPV-11 DNA replication. More specifically, in the assay described herein, the inhibitory activity of the test compound is evaluated based on its ability to interfere with the E1-E2-DNA origin of replication interaction, thereby inhibiting initiation of viral DNA replication.
This assay was modeled on a similar assay for SV40 T Antigen described by McKay (J. Mol. Biol., 1981,145:471). A 400bp radiolabeled DNA probe, containing the -HPV-11 origin of replication (Chiang et al.., 1992, Proc. Natl.-Acad. Sci. USA 89:5799) was produced by pcr, using plasmid pBluescript™ SK encoding the origin (nucleotides 7886-61 of the HPV-11 genome in unique BAMH1 site) as template and primers flanking the origin. Radiolabel was incorporated as [33p]dCTP. Binding assay buffer consisted of: 20 mM Tris pH 7.6, 100 mM NaCI, 1 mM DTT, 1 mM EDTA.
Other reagents used were protein A-SPA beads (type II, Amersham) and K72 rabbit polyclonal antiserum, raised against a peptide corresponding to the C-terminal 14 amino acids of HPV-11 E1. Following the protocol from Amersham, one bottle of beads was mixed with 25 mL of binding assay buffer. For the assay, a saturating amount of K72 antiserum was added to the beads and the mixture was incubated for 1 h, washed with one volume of binding assay buffer, and then resuspended in the same volume of fresh binding assay buffer. Binding reactions contained 8 ng of E2, approximately 100-200 ng of purified E1, and 0.4 ng of radiolabeled probe in a total of 80 µL of binding assay buffer. After 1 h at room temperature, 25 µL of K72 antibody-SPA bead suspension was added to with the binding reaction and mixed. After an additional hour of incubation at room temperature, the reactions were centrifuged briefly to pellet the beads and the extent of complex formation was determined by scintillation counting on a Packard TopCount™. Typically, the signal for reactions containing E1 and E2 was 20-30 fold higher than the background observed when either E1, E2, or both was omitted.

E1-E2-DNA complex, sequence (P04015 whole entry, one chain of several): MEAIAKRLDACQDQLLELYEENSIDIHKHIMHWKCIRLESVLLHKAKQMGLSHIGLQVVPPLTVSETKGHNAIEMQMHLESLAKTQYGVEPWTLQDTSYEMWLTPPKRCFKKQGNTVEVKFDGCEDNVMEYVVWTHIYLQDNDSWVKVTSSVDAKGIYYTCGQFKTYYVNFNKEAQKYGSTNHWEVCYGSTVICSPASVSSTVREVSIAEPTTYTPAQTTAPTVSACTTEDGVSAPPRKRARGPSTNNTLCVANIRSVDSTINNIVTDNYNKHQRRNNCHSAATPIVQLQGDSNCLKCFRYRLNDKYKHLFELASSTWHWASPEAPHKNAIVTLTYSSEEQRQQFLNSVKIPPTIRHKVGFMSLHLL

`COC(=O)C1C(C(=O)Nc2ccc3c(c2)OCO3)C(c2ccc(Cl)c(Cl)c2)OC12C(=O)c1ccccc1C2=O` (racemic) [Compound 1022] and `O=C(Nc1ccc2c(c1)OCO2)C1C(c2ccc(Cl)c(Cl)c2)OC2(C(=O)c3ccccc3C2=O)C1C(=O)O` (racemic) [Compound 5001] fall in the same range of IC50: 0.5 to 5 µM for the first, 0.5 to 5 µM for the second.

`COc1cccc(C2OC3(C(=O)c4ccccc4C3=O)C(C(=O)O)C2C(=O)Nc2ccc3c(c2)OCO3)c1` (racemic) [Compound 1023] and `Cc1ccc2c(c1)C(=O)C1(OC(c3ccc(Cl)c(Cl)c3)C(C(=O)Nc3ccc4c(c3)OCO4)C1C(=O)O)C2=O` (single isomer, unassigned) [Compound A1003] fall in the same range of IC50: 5 to 50 µM for the first, 5 to 50 µM for the second.

`CC(=O)c1ccc(NC(=O)C2C(c3ccc(Br)c(Br)c3)OC3(C(=O)c4ccccc4C3=O)C2C(=O)O)cc1` (racemic) [Compound 1027] and `Cc1ccc(NC(=O)C2C(c3ccc(Br)c(Br)c3)OC3(C(=O)c4ccccc4C3=O)C2C(=O)O)cc1` (racemic) [Compound 1072] cannot be ordered by IC50: less than 0.5 µM for the first, less than 0.5 µM for the second.

First: CC(=O)c1ccc(NC(=O)C2C(c3ccc(Cl)c(Cl)c3)OC3(C(=O)c4ccccc4C3=O)C2C(=O)O)cc1 (racemic) [Compound 1047]
Second: CC(=O)c1ccc(NC(=O)C2C(c3ccc(Cl)c(Cl)c3)OC34C(=O)c5ccccc5C3(O)OC(=O)C24)cc1 (racemic) [Compound 3009]
The IC50 of the first is higher: 0.5 to 5 µM for the first, less than 0.5 µM for the second. The second is the more potent here.

First: O=C(Nc1ccccc1)C1C(c2ccc(Br)c(Br)c2)OC2(C(=O)c3ccccc3C2=O)C1C(=O)O (racemic) [Compound 1074]
Second: O=C(NC1CC1c1ccccc1)C1C(c2ccc(Br)c(Br)c2)OC2(C(=O)c3ccccc3C2=O)C1C(=O)O (single isomer, unassigned) [Compound 1088]
The IC50 of the first is lower: less than 0.5 µM for the first, 0.5 to 5 µM for the second. The first is the more potent here.

First: O=C(NN1CCOCC1)C1C(c2ccc(Br)c(Br)c2)OC2(C(=O)c3ccccc3C2=O)C1C(=O)O (racemic) [Compound 1075]
Second: O=C(Nc1ccc(N2CCOCC2)cc1)C1C(c2ccc(Br)c(Br)c2)OC2(C(=O)c3ccccc3C2=O)C1C(=O)O (racemic) [Compound 1078]
The IC50 of the first is higher: 0.5 to 5 µM for the first, less than 0.5 µM for the second.

First: O=C(Nc1ccc(-c2csnn2)cc1)C1C(c2ccc(Br)c(Br)c2)OC2(C(=O)c3ccccc3C2=O)C1C(=O)O (racemic) [Compound 1076]
Second: Cc1ccc2c(c1)C(=O)C1(OC(c3ccc(Br)c(Br)c3)C(C(=O)Nc3ccc(-c4csnn4)cc3)C1C(=O)O)C2=O (single isomer, unassigned) [Compound A1010]
The IC50 of the first is lower: less than 0.5 µM for the first, 0.5 to 5 µM for the second. The first is the more potent here.

`O=C(NCCc1ccccc1)C1C(c2ccc(Cl)c(Cl)c2)OC2(C(=O)c3ccccc3C2=O)C1C(=O)O` (racemic) [Compound 1077] and `O=C(NC1CC1c1ccccc1)C1C(c2ccc(Br)c(Br)c2)OC2(C(=O)c3ccccc3C2=O)C1C(=O)O` (single isomer, unassigned) [Compound 1089] cannot be ordered by IC50: less than 0.5 µM for the first, less than 0.5 µM for the second.

First: O=C(Nc1ccc(Br)c(Cl)c1)C1C(c2ccc(Br)c(Br)c2)OC2(C(=O)c3ccccc3C2=O)C1C(=O)O (racemic) [Compound 1102]
Second: O=C(Nc1ccc(-c2csnn2)cc1)C1C(c2ccc(Br)c(Br)c2)OC2(C(=O)c3ccccc3C2=O)C1C(=O)O (single isomer, unassigned) [Compound A1001]
The IC50 of the first is lower: 0.5 to 5 µM for the first, 5 to 50 µM for the second. The first is the more potent here.

First: O=C1C2C(c3ccc(Cl)c(Cl)c3)OC3(C(=O)c4ccccc4C3=O)C2C(=O)N1c1ccc2c(c1)OCO2 (racemic) [Compound 2013]
Second: O=C1C2C(c3ccc(Cl)c(Cl)c3)OC3(C(=O)c4ccccc4C3O)C2C(=O)N1c1ccc2c(c1)OCO2 (racemic) [Compound 9001]
The IC50 of the first is lower: 0.5 to 5 µM for the first, 5 to 50 µM for the second.

Compared with `CC(=O)c1ccc(N2C(=O)C3C(c4ccc(Cl)c(Cl)c4)OC4(C(=O)c5ccccc5C4=O)C3C2=O)cc1` (racemic) [Compound 2016], `CC(=O)c1ccc(NC(=O)C2C(C=C(C)c3ccccc3)OC3(C(=O)c4ccccc4C3=O)C2C(=O)O)cc1` (racemic) [Compound 4008] is higher in IC50: 0.5 to 5 µM for the first, 5 to 50 µM for the second.

Compared with `O=C(Nc1ccc2c(c1)OCO2)C1C(c2cc(Cl)cc(Cl)c2)OC23C(=O)c4ccccc4C2(O)OC(=O)C13` (racemic) [Compound 3001], `O=C(Nc1ccc2c(c1)OCO2)C1C(c2ccc(Cl)cc2)OC23C(=O)c4ccccc4C2(O)OC(=O)C13` (racemic) [Compound 3005] is higher in IC50: 0.5 to 5 µM for the first, 5 to 50 µM for the second.

`O=C(NC1CCCCC1)C1C(c2ccc(Cl)cc2)OC23C(=O)c4ccccc4C2(O)OC(=O)C13` (racemic) [Compound 3002] and `O=C(Nc1ccccc1Cl)C1C(c2ccc(Cl)cc2)OC23C(=O)c4ccccc4C2(O)OC(=O)C13` (racemic) [Compound 3006] fall in the same range of IC50: 5 to 50 µM for the first, 5 to 50 µM for the second.

Compared with `O=C(NCc1ccccc1)C1C(c2ccc(Cl)cc2)OC23C(=O)c4ccccc4C2(O)OC(=O)C13` (racemic) [Compound 3003], `O=C(NCc1ccccc1)C1C(c2ccc(Cl)c(Cl)c2)OC23C(=O)c4ccccc4C2(O)OC(=O)C13` (racemic) [Compound 3011] is lower in IC50: 5 to 50 µM for the first, 0.5 to 5 µM for the second. The second is the more potent here.

`CC(NC(=O)C1C(c2ccc(Cl)c(Cl)c2)OC23C(=O)c4ccccc4C2(O)OC(=O)C13)c1ccccc1` (racemic) [Compound 3007] and `Cc1ccc2c(c1)C1(O)OC(=O)C3C(C(=O)NCCc4ccccc4Cl)C(c4ccc(Br)c(Br)c4)OC31C2=O` (single isomer, unassigned) [Compound B1005] fall in the same range of IC50: 5 to 50 µM for the first, 5 to 50 µM for the second.

`[N-]=[N+]=Nc1c(F)c(F)c(CNC(=O)C2C(c3ccc(Cl)c(Cl)c3)OC34C(=O)c5ccccc5C3(O)OC(=O)C24)c(F)c1F` (racemic) [Compound 3008] and `Cc1ccc2c(c1)C(=O)C13OC(c4ccc(Br)c(Br)c4)C(C(=O)NCCc4ccccc4Cl)C1C(=O)OC23O` (single isomer, unassigned) [Compound B1004] fall in the same range of IC50: 5 to 50 µM for the first, 5 to 50 µM for the second.

`CC(=O)c1ccc(NC(=O)C2C(C(C)=Cc3ccccc3)OC3(C(=O)c4ccccc4C3=O)C2C(=O)O)cc1` (racemic) [Compound 4009] and `CC(=O)c1ccc(NC(=O)C2C(C(Br)=Cc3ccccc3)OC3(C(=O)c4ccccc4C3=O)C2C(=O)O)cc1` (racemic) [Compound 4012] fall in the same range of IC50: 5 to 50 µM for the first, 5 to 50 µM for the second.

`COC(=O)C1C(C(=O)Nc2ccc3c(c2)OCO3)C(c2ccc(Cl)c(Cl)c2)OC12C(=O)c1ccccc1C21CO1` (racemic) [Compound 7001] and `Cc1ccc2c(c1)C(=O)C1(OC(c3ccc(Cl)c(Cl)c3)C(C(=O)Nc3ccc4c(c3)OCO4)C1C(=O)O)C2=O` (single isomer, unassigned) [Compound A1004] fall in the same range of IC50: 5 to 50 µM for the first, 5 to 50 µM for the second.

`O=C(Nc1ccc(-c2csnn2)cc1)C1C(c2ccc(Br)c(Br)c2)OC2(C(=O)c3ccccc3C2=O)C1C(=O)O` (single isomer, unassigned) [Compound A1002] and `Cc1ccc2c(c1)C(=O)C1(OC(c3ccc(Br)c(Br)c3)C(C(=O)Nc3ccc(-c4csnn4)cc3)C1C(=O)O)C2=O` (single isomer, unassigned) [Compound A1011] cannot be ordered by IC50: less than 0.5 µM for the first, less than 0.5 µM for the second.

`Cc1ccc2c(c1)C(=O)C1(OC(c3ccc(Cl)c(Cl)c3)C(C(=O)Nc3ccc4c(c3)OCO4)C1C(=O)O)C2=O` (single isomer, unassigned) [Compound A1005] and `Cc1ccc2c(c1)C(=O)C1(OC(c3ccc(Br)c(Br)c3)C(C(=O)Nc3ccc(N4CCOCC4)cc3)C1C(=O)O)C2=O` (single isomer, unassigned) [Compound A1014] cannot be ordered by IC50: less than 0.5 µM for the first, less than 0.5 µM for the second.

First: O=C(Nc1ccc(N2CCOCC2)cc1)C1C(c2ccc(Br)c(Br)c2)OC2(C(=O)c3ccccc3C2=O)C1C(=O)O (single isomer, unassigned) [Compound A1012]
Second: Cc1cc2c(cc1F)C(=O)C1(OC(c3ccc(Br)c(Br)c3)C(C(=O)Nc3ccc(N4CCOCC4)cc3)C1C(=O)O)C2=O (single isomer, unassigned) [Compound A1015]
The IC50 of the first is higher: 5 to 50 µM for the first, less than 0.5 µM for the second. The second is the more potent here.

Compared with `O=C(Nc1ccc(N2CCOCC2)cc1)C1C(c2ccc(Br)c(Br)c2)OC2(C(=O)c3ccccc3C2=O)C1C(=O)O` (single isomer, unassigned) [Compound A1013], `Cc1cc2c(cc1F)C(=O)C1(OC(c3ccc(Br)c(Br)c3)C(C(=O)Nc3ccc(N4CCOCC4)cc3)C1C(=O)O)C2=O` (single isomer, unassigned) [Compound A1016] is higher in IC50: less than 0.5 µM for the first, 0.5 to 5 µM for the second. The first is the more potent here.

`Cc1ccc2c(c1)C(=O)C13OC(c4ccc(Br)c(Br)c4)C(C(=O)Nc4ccc(N5CCOCC5)cc4)C1C(=O)OC23O` (single isomer, unassigned) [Compound B1002] and `Cc1ccc2c(c1)C1(O)OC(=O)C3C(C(=O)Nc4ccc(N5CCOCC5)cc4)C(c4ccc(Br)c(Br)c4)OC31C2=O` (single isomer, unassigned) [Compound B1003] cannot be ordered by IC50: less than 0.5 µM for the first, less than 0.5 µM for the second.

For `Cc1ccc2c(c1)C(=O)C13OC(c4ccc(Br)c(Br)c4)C(C(=O)NCCc4ccccc4Cl)C1C(=O)OC23O` (single isomer, unassigned) [Compound B1006], the IC50 was 0.5 to 5 µM.
